Measurements from ChEMBL document CHEMBL1177794, “Broad spectrum alkynyl inhibitors of T315I Bcr-Abl” (Bioorg Med Chem Lett, 2010).

Tests used:
[1] = target: Mitogen-activated protein kinase kinase kinase 11 (Homo sapiens) (UniProt Q16584); assay: Inhibition of MLK3 at 10 uM
[2] = target: Casein kinase I isoform gamma-3 (Homo sapiens) (UniProt Q9Y6M4); assay: Inhibition of CSNK1G3 at 10 uM; values are per cent of control
[3] = target: Casein kinase II subunit alpha' (Homo sapiens) (UniProt P19784); assay: Inhibition of CSNK2A2 at 10 uM; settings: values are per cent of control
[4] = system: Receptor-type tyrosine-protein kinase FLT3 (Homo sapiens), P36888 [D835H]; assay: Inhibition of FLT3 D835H mutant at 10 uM; settings: values are per cent of control
[5] = target: Phosphatidylinositol 4-phosphate 3-kinase C2 domain-containing subunit beta (Homo sapiens) (UniProt O00750); assay: Inhibition of PIK3C2B at 10 uM
[6] = system: Tyrosine-protein kinase ABL1 (Homo sapiens), P00519 [H396P]; assay: Inhibition of non phosphorylated ABL1 H396P mutant at 10 uM; settings: values are per cent of control
[7] = target: SRSF protein kinase 2 (Homo sapiens) (UniProt P78362); assay: Inhibition of SRPK2 at 10 uM
[8] = target: Mitogen-activated protein kinase 7 (Homo sapiens) (UniProt Q13164); assay: Inhibition of ERK5 at 10 uM; values are per cent of control
[9] = target: Vascular endothelial growth factor receptor 1 (Homo sapiens) (UniProt P17948); assay: Inhibition of FLT1 at 10 uM; values are per cent of control
[10] = target: Ribosomal protein S6 kinase alpha-1 (Homo sapiens) (UniProt Q15418); assay: Inhibition of RSK1 N-terminal domain1 at 10 uM
[11] = target: Non-receptor tyrosine-protein kinase TNK1 (Homo sapiens) (UniProt Q13470); assay: Inhibition of TNK1 at 10 uM; settings: values are per cent of control
[12] = system: Epidermal growth factor receptor (Homo sapiens), P00533 [UNDEFINED MUTATION]; assay: Inhibition of EGFR L747-E749del, A750P mutant at 10 uM; values are per cent of control
[13] = target: Cyclin-dependent kinase 16 (Homo sapiens) (UniProt Q00536); assay: Inhibition of PCTK1 at 10 uM; settings: values are per cent of control
[14] = system: Mast/stem cell growth factor receptor Kit (Homo sapiens), P10721 [V559D]; assay: Inhibition of KIT V559D mutant at 10 uM; settings: values are per cent of control
[15] = target: Tyrosine-protein kinase ABL2 (Homo sapiens) (UniProt P42684); assay: Inhibition of ABL2 at 10 uM; settings: values are per cent of control
[16] = target: Tyrosine-protein kinase JAK1 (Homo sapiens) (UniProt P23458); assay: Inhibition of JAK1 JH1 catalytic domain at 10 uM; values are per cent of control
[17] = target: Mitogen-activated protein kinase kinase kinase 13 (Homo sapiens) (UniProt O43283); assay: Inhibition of LZK at 10 uM; values are per cent of control
[18] = target: cAMP-dependent protein kinase catalytic subunit alpha (Homo sapiens) (UniProt P17612); assay: Inhibition of PKAC-alpha at 10 uM; settings: values are per cent of control
[19] = target: Ephrin type-A receptor 4 (Homo sapiens) (UniProt P54764); assay: Inhibition of EPHA4 at 10 uM; settings: values are per cent of control
[20] = target: Calcium/calmodulin-dependent protein kinase kinase 2 (Homo sapiens) (UniProt Q96RR4); assay: Inhibition of CAMKK2 at 10 uM; settings: values are per cent of control
[21] = target: Insulin receptor (Homo sapiens) (UniProt P06213); assay: Inhibition of INSR at 10 uM; settings: values are per cent of control
[22] = target: Epidermal growth factor receptor (Homo sapiens) (UniProt P00533); assay: Inhibition of EGFR at 10 uM; values are per cent of control
[23] = target: Casein kinase II subunit alpha (Homo sapiens) (UniProt P68400); assay: Inhibition of CSNK2A1 at 10 uM; settings: values are per cent of control
[24] = system: Hepatocyte growth factor receptor (Homo sapiens), P08581 [Y1235D]; assay: Inhibition of MET Y1235D mutant at 10 uM
[25] = target: Ribosomal protein S6 kinase alpha-3 (Homo sapiens) (UniProt P51812); assay: Inhibition of RSK2 N-terminal domain1 at 10 uM
[26] = target: Dual specificity mitogen-activated protein kinase kinase 6 (Homo sapiens) (UniProt P52564); assay: Inhibition of MEK6 at 10 uM; settings: values are per cent of control
[27] = target: Casein kinase I isoform gamma-2 (Homo sapiens) (UniProt P78368); assay: Inhibition of CSNK1G2 at 10 uM; values are per cent of control
[28] = target: Mitogen-activated protein kinase 9 (Homo sapiens) (UniProt P45984); assay: Inhibition of JNK2 at 10 uM; values are per cent of control
[29] = target: Serine/threonine-protein kinase TAO1 (Homo sapiens) (UniProt Q7L7X3); assay: Inhibition of TAOK1 at 10 uM
[30] = target: Serine/threonine-protein kinase ULK1 (Homo sapiens) (UniProt O75385); assay: Inhibition of ULK1 at 10 uM; settings: values are per cent of control
[31] = target: Fibroblast growth factor receptor 4 (Homo sapiens) (UniProt P22455); assay: Inhibition of FGFR4 at 10 uM; settings: values are per cent of control
[32] = target: Phosphatidylinositol 3-kinase C2 domain-containing subunit gamma (Homo sapiens) (UniProt O75747); assay: Inhibition of PIK3C2G at 10 uM
[33] = target: Serine/threonine-protein kinase LATS2 (Homo sapiens) (UniProt Q9NRM7); assay: Inhibition of LATS2 at 10 uM; values are per cent of control
[34] = target: Fibroblast growth factor receptor 1 (Homo sapiens) (UniProt P11362); assay: Inhibition of FGFR1 at 10 uM; settings: values are per cent of control
[35] = target: Glycogen synthase kinase-3 beta (Homo sapiens) (UniProt P49841); assay: Inhibition of GSK3B at 10 uM; settings: values are per cent of control
[36] = target: Calcium/calmodulin-dependent protein kinase type II subunit gamma (Homo sapiens) (UniProt Q13555); assay: Inhibition of CAMK2G at 10 uM; settings: values are per cent of control
[37] = system: Tyrosine-protein kinase ABL1 (Homo sapiens), P00519 [F317I]; assay: Inhibition of non phosphorylated ABL1 F317I mutant at 10 uM; settings: values are per cent of control
[38] = target: Myosin light chain kinase, smooth muscle (Homo sapiens) (UniProt Q15746); assay: Inhibition of MLCK at 10 uM; values are per cent of control
[39] = target: Mitogen-activated protein kinase 12 (Homo sapiens) (UniProt P53778); assay: Inhibition of p38-gamma at 10 uM; values are per cent of control
[40] = target: Serine/threonine-protein kinase Nek7 (Homo sapiens) (UniProt Q8TDX7); assay: Inhibition of NEK7 at 10 uM
Chain of Serine/threonine-protein kinase Nek7 (Homo sapiens) (Q8TDX7 whole entry, looked up): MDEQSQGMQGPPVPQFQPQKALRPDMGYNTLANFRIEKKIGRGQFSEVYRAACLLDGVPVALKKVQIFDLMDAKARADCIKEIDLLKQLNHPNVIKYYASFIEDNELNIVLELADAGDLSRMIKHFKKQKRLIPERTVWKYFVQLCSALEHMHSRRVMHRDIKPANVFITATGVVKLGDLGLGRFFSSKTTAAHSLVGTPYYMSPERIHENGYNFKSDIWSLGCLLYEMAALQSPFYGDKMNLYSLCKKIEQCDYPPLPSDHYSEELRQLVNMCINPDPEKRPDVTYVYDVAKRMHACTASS

Chain of Mitogen-activated protein kinase 9 (Homo sapiens) (P45984 whole entry, looked up): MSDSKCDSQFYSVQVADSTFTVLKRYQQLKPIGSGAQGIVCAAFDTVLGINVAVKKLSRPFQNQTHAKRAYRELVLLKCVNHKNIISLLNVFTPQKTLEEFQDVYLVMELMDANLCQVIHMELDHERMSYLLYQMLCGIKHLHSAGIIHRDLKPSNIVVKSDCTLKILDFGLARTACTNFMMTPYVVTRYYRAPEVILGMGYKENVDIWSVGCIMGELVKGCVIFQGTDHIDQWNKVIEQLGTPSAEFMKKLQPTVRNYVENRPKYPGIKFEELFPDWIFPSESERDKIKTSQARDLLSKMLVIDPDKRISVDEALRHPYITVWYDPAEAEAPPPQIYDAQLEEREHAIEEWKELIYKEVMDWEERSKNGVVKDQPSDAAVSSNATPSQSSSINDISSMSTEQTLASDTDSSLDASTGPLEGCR
Chain of Casein kinase II subunit alpha (Homo sapiens) (P68400 whole entry, looked up): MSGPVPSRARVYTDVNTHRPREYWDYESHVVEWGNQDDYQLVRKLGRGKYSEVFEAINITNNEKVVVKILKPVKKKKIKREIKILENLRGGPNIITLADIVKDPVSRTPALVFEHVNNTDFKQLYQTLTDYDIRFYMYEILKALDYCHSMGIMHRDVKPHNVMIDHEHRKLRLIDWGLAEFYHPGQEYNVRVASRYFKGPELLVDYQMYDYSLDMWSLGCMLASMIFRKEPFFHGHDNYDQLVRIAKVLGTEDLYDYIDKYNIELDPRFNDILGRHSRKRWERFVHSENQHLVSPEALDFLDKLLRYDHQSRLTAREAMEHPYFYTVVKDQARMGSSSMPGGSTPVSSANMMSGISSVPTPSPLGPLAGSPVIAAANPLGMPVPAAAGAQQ
Chain of Mitogen-activated protein kinase 7 (Homo sapiens) (Q13164 2-816 limits assumed): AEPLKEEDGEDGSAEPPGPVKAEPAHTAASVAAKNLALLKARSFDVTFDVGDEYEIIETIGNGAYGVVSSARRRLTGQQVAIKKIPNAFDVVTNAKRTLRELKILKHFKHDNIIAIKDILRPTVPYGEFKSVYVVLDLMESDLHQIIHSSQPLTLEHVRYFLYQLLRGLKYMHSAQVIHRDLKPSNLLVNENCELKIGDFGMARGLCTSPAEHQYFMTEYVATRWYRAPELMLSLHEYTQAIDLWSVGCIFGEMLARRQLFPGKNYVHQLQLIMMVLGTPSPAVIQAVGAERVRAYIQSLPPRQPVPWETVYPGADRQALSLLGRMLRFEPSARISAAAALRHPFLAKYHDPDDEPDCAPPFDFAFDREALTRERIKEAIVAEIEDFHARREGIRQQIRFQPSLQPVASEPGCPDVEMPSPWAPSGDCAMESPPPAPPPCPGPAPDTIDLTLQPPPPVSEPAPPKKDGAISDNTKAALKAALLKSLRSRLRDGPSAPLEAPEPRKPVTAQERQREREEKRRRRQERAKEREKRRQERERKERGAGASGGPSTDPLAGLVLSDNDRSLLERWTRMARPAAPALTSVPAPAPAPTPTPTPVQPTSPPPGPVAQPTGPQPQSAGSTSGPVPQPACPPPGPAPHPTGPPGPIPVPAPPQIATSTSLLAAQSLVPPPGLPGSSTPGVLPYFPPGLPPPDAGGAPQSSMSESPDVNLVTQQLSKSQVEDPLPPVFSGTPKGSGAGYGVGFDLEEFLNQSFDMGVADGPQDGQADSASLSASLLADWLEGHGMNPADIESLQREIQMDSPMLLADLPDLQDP
Chain of Fibroblast growth factor receptor 4 (Homo sapiens) (P22455 22-802 limits assumed): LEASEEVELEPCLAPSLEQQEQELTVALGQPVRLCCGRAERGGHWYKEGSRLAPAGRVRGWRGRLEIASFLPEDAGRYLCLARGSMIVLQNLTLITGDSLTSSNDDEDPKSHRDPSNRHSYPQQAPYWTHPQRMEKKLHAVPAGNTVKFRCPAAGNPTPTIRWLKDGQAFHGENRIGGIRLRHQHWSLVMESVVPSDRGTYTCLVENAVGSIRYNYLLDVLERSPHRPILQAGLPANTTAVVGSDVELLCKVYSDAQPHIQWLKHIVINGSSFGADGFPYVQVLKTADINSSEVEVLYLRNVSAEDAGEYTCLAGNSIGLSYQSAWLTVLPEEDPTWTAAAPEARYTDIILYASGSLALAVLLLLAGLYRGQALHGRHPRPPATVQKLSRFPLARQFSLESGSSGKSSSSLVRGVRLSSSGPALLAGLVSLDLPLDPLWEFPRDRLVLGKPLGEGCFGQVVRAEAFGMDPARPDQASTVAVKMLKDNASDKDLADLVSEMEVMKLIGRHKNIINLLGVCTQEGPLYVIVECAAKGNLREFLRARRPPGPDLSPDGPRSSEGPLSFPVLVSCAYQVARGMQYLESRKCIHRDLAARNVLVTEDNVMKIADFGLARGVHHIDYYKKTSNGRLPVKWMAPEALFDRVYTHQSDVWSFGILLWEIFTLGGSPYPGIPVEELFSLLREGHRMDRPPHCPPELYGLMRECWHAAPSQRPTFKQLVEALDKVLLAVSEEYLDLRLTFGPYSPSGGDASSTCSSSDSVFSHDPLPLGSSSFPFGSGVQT
Chain of Cyclin-dependent kinase 16 (Homo sapiens) (Q00536 whole entry): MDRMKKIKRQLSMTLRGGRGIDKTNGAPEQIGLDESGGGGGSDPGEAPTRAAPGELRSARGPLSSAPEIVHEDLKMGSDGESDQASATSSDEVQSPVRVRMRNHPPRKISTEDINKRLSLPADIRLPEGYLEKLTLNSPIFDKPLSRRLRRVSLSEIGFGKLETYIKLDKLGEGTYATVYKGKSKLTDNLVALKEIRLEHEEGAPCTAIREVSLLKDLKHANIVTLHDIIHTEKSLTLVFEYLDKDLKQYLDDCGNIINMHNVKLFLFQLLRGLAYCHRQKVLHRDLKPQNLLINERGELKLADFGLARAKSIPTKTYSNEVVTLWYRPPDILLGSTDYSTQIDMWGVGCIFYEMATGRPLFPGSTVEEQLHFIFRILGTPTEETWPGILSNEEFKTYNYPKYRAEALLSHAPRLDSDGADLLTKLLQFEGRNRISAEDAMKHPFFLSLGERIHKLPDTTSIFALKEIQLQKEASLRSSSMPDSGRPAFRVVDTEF
Chain of Serine/threonine-protein kinase ULK1 (Homo sapiens) (O75385 whole entry): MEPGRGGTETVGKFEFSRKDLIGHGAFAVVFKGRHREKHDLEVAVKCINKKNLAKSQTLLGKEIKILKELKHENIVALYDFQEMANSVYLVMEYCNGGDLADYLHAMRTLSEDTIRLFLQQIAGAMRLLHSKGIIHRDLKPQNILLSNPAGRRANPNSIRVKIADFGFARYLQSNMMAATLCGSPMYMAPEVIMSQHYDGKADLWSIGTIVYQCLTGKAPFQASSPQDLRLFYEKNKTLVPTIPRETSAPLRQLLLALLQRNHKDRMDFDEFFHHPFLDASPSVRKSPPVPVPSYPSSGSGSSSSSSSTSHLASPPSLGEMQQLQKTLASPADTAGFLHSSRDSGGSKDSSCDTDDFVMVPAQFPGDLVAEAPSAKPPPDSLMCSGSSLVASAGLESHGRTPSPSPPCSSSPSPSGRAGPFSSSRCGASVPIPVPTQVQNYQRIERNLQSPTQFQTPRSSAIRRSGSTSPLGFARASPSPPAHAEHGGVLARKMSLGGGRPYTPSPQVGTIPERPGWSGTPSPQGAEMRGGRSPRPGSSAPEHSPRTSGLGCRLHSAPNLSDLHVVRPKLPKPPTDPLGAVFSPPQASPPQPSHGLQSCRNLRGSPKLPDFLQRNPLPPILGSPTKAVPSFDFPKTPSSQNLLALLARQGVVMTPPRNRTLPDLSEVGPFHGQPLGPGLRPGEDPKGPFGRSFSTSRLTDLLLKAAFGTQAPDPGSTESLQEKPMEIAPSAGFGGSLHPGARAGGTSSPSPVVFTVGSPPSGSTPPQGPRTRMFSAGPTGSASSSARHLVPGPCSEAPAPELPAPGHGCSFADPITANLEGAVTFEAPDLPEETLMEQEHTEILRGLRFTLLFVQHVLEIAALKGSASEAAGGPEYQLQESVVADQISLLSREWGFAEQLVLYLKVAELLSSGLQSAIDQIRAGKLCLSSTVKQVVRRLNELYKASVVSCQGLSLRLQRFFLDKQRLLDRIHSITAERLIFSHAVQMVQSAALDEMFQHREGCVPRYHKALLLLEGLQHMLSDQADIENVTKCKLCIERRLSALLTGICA
Chain of Casein kinase II subunit alpha' (Homo sapiens) (P19784 whole entry, looked up): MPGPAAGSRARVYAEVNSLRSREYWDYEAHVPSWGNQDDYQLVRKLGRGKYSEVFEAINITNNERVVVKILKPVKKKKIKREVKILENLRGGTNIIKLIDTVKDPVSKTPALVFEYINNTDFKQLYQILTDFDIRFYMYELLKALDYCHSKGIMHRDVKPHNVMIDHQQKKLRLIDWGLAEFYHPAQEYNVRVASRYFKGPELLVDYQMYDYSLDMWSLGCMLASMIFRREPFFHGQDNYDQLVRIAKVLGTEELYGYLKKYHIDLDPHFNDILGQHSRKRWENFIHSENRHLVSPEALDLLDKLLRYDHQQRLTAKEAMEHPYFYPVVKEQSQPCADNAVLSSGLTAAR
Chain of Dual specificity mitogen-activated protein kinase kinase 6 (Homo sapiens) (P52564 whole entry, canonical isoform): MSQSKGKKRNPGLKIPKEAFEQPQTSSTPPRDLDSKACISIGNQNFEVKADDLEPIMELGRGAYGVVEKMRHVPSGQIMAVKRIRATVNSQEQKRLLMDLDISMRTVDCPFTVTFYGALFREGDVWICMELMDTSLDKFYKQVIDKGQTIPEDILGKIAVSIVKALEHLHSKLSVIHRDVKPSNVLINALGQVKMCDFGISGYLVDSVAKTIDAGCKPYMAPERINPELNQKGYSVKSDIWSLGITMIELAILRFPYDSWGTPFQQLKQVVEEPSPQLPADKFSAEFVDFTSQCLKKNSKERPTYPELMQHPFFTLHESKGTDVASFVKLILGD

Row | SMILES | inhibition [1] | level, % of control [2] | residual binding, % of control [3] | residual binding, % of control [4] | inhibition [5] | residual binding, % of control [6] | inhibition [7] | level, % of control [8] | level, % of control [9] | inhibition [10] | residual binding, % of control [11] | level, % of control [12] | residual binding, % of control [13] | residual binding, % of control [14] | residual binding, % of control [15] | level, % of control [16] | level, % of control [17] | residual binding, % of control [18] | residual binding, % of control [19] | residual binding, % of control [20] | further results
1 | CCN1CCN(Cc2ccc(NC(=O)c3ccc(C)c(C#Cc4cnc5[nH]ccc5c4)c3)cc2C(F)(F)F)CC1 | 3% | 22% | 78% | 0.35% | 100% | 0.05% | 63% | 36% | 0.8% | 34% | 0.8% | 0.25% | 46% | 0% | 0% | 2.9% | 7.8% | 27% | 0.25% | 27% | residual binding, % of control [21]: 53%; level, % of control [22]: 0.3%; residual binding, % of control [23]: 100%; inhibition [24]: 4.9%; inhibition [25]: 2.8%; residual binding, % of control [26]: 88%; level, % of control [27]: 14%; level, % of control [28]: 0%; inhibition [29]: 0%; residual binding, % of control [30]: 38%; residual binding, % of control [31]: 0%; inhibition [32]: 100%; level, % of control [33]: 7%; residual binding, % of control [34]: 0.15%; residual binding, % of control [35]: 90%; residual binding, % of control [36]: 92%; residual binding, % of control [37]: 8.8%; % of control [38]: 18%; % of control [39]: 5.7%; inhibition [40]: 50%
2 | CCN1CCN(Cc2ccc(NC(=O)c3ccc(C)c(C#Cc4cccnc4)c3)cc2C(F)(F)F)CC1 | 17% | 85% | 94% | 0.15% | 100% | 0% | 81% | 71% | 0.5% | 53% | 0% | 1.2% | 8.4% | 0% | 0.05% | 6.2% | 7.4% | 8.4% | 0% | 7.8% | residual binding, % of control [21]: 58%; level, % of control [22]: 3%; residual binding, % of control [23]: 100%; inhibition [24]: 61%; inhibition [25]: 16%; residual binding, % of control [26]: 100%; level, % of control [27]: 100%; level, % of control [28]: 0%; inhibition [29]: 0.25%; residual binding, % of control [30]: 24%; residual binding, % of control [31]: 0%; inhibition [32]: 100%; level, % of control [33]: 7.6%; residual binding, % of control [34]: 0.25%; residual binding, % of control [35]: 99%; residual binding, % of control [36]: 95%; residual binding, % of control [37]: 8.8%; % of control [38]: 60%; % of control [39]: 2.7%; inhibition [40]: 88%
